The values that follow come from US6461997B1, “Triazole sulfones having herbicidal activity” (Monsanto Technology LLC, priority 1999, dated 2002).

Molecules are shown by their SMILES.

For assay [1], the system named is AGSST (creeping bentgrass). Put plainly: Pre-emergence herbicidal activity, cool season. The class given is in vivo, Agrostis stolonifera. The settings on record: GR80 = lowest tested rate (300, 100, 30, 10 g/ha) with 80% or greater inhibition; approx. 14 days after treating; 18/13° C. Summed up:
(§1)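 Seeds sown in sterilised fertilised topsoil received surface-applied compound in 50:50 acetone/water, typically at 300, 100, 30 and 10 g/ha, then greenhouse-grown at 30/21° C (warm-season species) or 18/13° C (cool-season species). Percent inhibition versus untreated plants was scored at about 14 days, giving GR80; an asterisk marks activity short of 80% at the top rate.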

Assay [2] has as its system LAMPU (purple deadnettle). Kind of assay: Pre-emergence herbicidal activity, cool season. The class given is in vivo, Lamium purpureum. As to conditions: lowest tested rate with 80% or greater inhibition; rates 300, 100, 30, 10 g/ha; about 14 days. An outline of the steps: as §1
For assay [3], the system named is PANMI (wild proso millet). Put plainly: Pre-plant incorporated (PPI) herbicidal activity, warm season. The class given is in vivo, Panicum miliaceum. The settings on record: for PPI activity GR80, PANMI: pre-plant incorporated, lowest tested rate with 80% or greater inhibition, about 14 days. How it is done: (§2) In another set of tests, the pre-plant incorporated (PPI) activity of compounds of this invention was evaluated on the same species as for the pre-emergence tests described above. In the PPI tests the following procedure, designed to simulate PPI application, was used.
(§3) A pre-prepared topsoil mixture (described above) was placed in a pot and compacted to a depth of 1.0 to 1.25 cm from the top of the pot. Seeds of each of several monocotyledonous and dicotyledonous annual plant species were placed on top of the soil. A sufficient quantity of soil to cover the seeds and level fill the pot was weighed into an open container. A known amount of the test compound was dissolved or suspended in an organic solvent and applied by spraying to this cover soil. The cover soil was thoroughly mixed to distribute the test compound throughout the cover soil, and was then applied as a cover layer over the seeds. Untreated soil was used as a cover layer for control pots. After treatment the plants were placed in a greenhouse where they received 0.64 cm of overhead irrigation. All subsequent watering consisted of a light overhead mist and/or subirrigation as needed for germination and growth. Tables 9 and 10 below relate to warm season plant species which were placed after pre-emergence treatment in a greenhouse with a 30/21° C. day/night temperature regime. Tables 11 and 12 below relates to cool season plant species placed after pre-emergence treatment in a greenhouse or growth chamber with an 18/13° C. day/night temperature regime. Only the compounds of Examples 1, 6, 8, 11, 13 and 15-20 were included in PPI tests.
(§4) Approximately 14 days after planting and treating, the plants were observed and herbicidal efficacy recorded as percent inhibition by comparison with untreated plants.

Assay [4] deals with AEGCY (jointed goatgrass). Put plainly: Pre-plant incorporated (PPI) herbicidal activity, cool season. The settings on record: for PPI activity GR80, AEGCY: pre-plant incorporated, lowest tested rate with 80% or greater inhibition, about 14 days; for Percent inhibition AEGCY: weed, PPI application. The class given is in vivo, Aegilops cylindrica. The procedure: as §2, §3, §4

The next assay concerns SINAR (wild mustard). Put plainly: Pre-emergence herbicidal activity, cool season. The format is in vivo, Sinapis arvensis. The settings on record: lowest tested rate with 80% or greater inhibition; rates 300, 100, 30, 10 g/ha; about 14 days. An outline of the steps:
as §1

The test system of another assay is LOLMG (annual ryegrass). Put plainly: Pre-plant incorporated (PPI) herbicidal activity, cool season. The class given is in vivo, Lolium multiflorum. As to conditions: for PPI activity GR80, LOLMG: pre-plant incorporated, lowest tested rate with 80% or greater inhibition, about 14 days; for Percent inhibition LOLMG: weed, PPI application. The procedure: as §2, §3, §4

The next assay concerns AMARE (redroot pigweed). Put plainly: Pre-plant incorporated (PPI) herbicidal activity, warm season. The settings on record: for PPI activity (GR80) AMARE: pre-plant incorporated, GR80 = lowest tested rate with 80% or greater inhibition, approx. 14 days after treating, 30/21° C. The format is in vivo, Amaranthus retroflexus. The procedure: as §2, §3, §4
The subject of a further assay is SETVI (green foxtail). Kind of assay: Pre-emergence herbicidal activity, cool season. The format is in vivo, Setaria viridis. As to conditions: GR80 = lowest tested rate (300, 100, 30, 10 g/ha) with 80% or greater inhibition; approx. 14 days after treating; 18/13° C. An outline of the steps: as §1
For assay [5], the system named is CHEAL (common lambsquarters). Kind of assay: Pre-plant incorporated (PPI) herbicidal activity, warm season. The format is in vivo, Chenopodium album. The settings on record: for PPI activity (GR80) CHEAL: pre-plant incorporated, GR80 = lowest tested rate with 80% or greater inhibition, approx. 14 days after treating, 30/21° C.; for Percent inhibition CHEAL: PPI application. The procedure:
as §2, §3, §4

A further assay deals with XANST (cocklebur). The description is as above. The format is in vivo, Xanthium strumarium. The settings on record: PPI application. The procedure: as §2, §3, §4
The next assay relates to wheat (TRZAW). Put plainly: Selectivity test, PPI, cool season crop. The format is in vivo, Triticum aestivum. As to conditions: PPI application. The procedure:
as §3, §4
Additional pre-emergence and PPI tests were conducted by the procedures described above, on warm and cool season weed species in the presence of crop species, to assess herbicidal selectivity. Crop species included in warm season tests were corn (Zea mays, ZEAMX), rice (Oryza sativa, ORYSA) and soybean (Glycine max, GLYMX). Crop species included in cool season tests were wheat (Triticum aestivum, TRZAW), barley (Hordeunm vulgare, HORVX) and oilseed rape (Brassica napus, BRSNS).
Tables 15 and 16 relate to pre-emergence and PPI tests respectively on warm season species. Table 17 relates to pre-emergence tests on cool season species.

With `CCN(CC)C(=O)n1cnc(S(=O)(=O)C(F)(F)C(=O)c2ccccc2)n1` [Example 6], the “Pre-emergence activity (GR80) AGSST” value in assay [1] was determined as 100 g/ha. For the same molecule, in assay [2], the “Pre-emergence activity GR80, LAMPU” value was found to be 100 g/ha. The “PPI activity GR80, PANMI” value in assay [3] was found to be 100 g/ha. For the same molecule, in [4], the “PPI activity GR80, AEGCY” value is “[empty]”. Moreover, the “Pre-emergence activity GR80, SINAR” value with SINAR (wild mustard) came to 300 g/ha. The “PPI activity GR80, LOLMG” value in the assay with LOLMG (annual ryegrass) came out at 300 g/ha. Moreover, in the assay with AMARE (redroot pigweed), the “PPI activity (GR80) AMARE” value was determined as 100 g/ha. The “Pre-emergence activity (GR80) SETVI” value in the assay on SETVI (green foxtail) worked out at 300 g/ha. In assay [5], the “PPI activity (GR80) CHEAL” value was found to be 100 g/ha.
As for `CCN(CC)C(=O)n1cnc(S(=O)(=O)C(F)(F)SCC(=O)OC)n1` [Example 11], the “Percent inhibition XANST” value in the assay on XANST (cocklebur) (10 g/ha), in the assay on XANST (cocklebur) (30 g/ha), with XANST (cocklebur) (100 g/ha), with XANST (cocklebur) (300 g/ha) and in the assay with XANST (cocklebur) (900 g/ha) was 0% throughout. Also, the “Pre-emergence activity GR80, LAMPU” value in [2] is given as 100 g/ha. In addition, the “Percent inhibition PANMI” value in assay [3] (PPI application, 30 g/ha) is on record as 0%; in assay [3] (PPI application, 100 g/ha) it was 20%; in assay [3] (PPI application, 300 g/ha), 80%; in assay [3] (PPI application, 900 g/ha) it was 100%. Moreover, in [3], the “PPI activity GR80, PANMI” value was “* (activity observed, at least at highest rate, but <80% inhibition)”. For the same molecule, in assay [4], the “PPI activity GR80, AEGCY” value is “[empty]”. In addition, the “Percent inhibition AEGCY” value in assay [4] (10 g/ha) worked out at 0%; in assay [4] (30 g/ha), 0%; in assay [4] (100 g/ha) it was 0%; in [4] (300 g/ha), 0%; in [4] (900 g/ha) it was 10%. The “Percent inhibition TRZAW” value is on record as 0% with wheat (TRZAW) (10 g/ha); 0% in the assay on wheat (TRZAW) (30 g/ha); 0% in the assay on wheat (TRZAW) (100 g/ha); 0% in the assay with wheat (TRZAW) (300 g/ha); 20% with wheat (TRZAW) (900 g/ha). Further, the “Pre-emergence activity GR80, SINAR” value with SINAR (wild mustard) is given as 100 g/ha. Besides, the “PPI activity GR80, LOLMG” value in the assay on LOLMG (annual ryegrass) was “[empty]”. The “Percent inhibition LOLMG” value worked out at 20% in the assay on LOLMG (annual ryegrass) (10 g/ha); 40% with LOLMG (annual ryegrass) (30 g/ha); 70% in the assay with LOLMG (annual ryegrass) (100 g/ha); 99% in the assay on LOLMG (annual ryegrass) (300 g/ha); 95% in the assay on LOLMG (annual ryegrass) (900 g/ha). The “Percent inhibition AMARE” value is recorded as 0% in the assay on AMARE (redroot pigweed) (PPI application, 10 g/ha); 90% in the assay on AMARE (redroot pigweed) (PPI application, 30 g/ha); 40% in the assay on AMARE (redroot pigweed) (PPI application, 100 g/ha); 95% in the assay on AMARE (redroot pigweed) (PPI application, 300 g/ha); 100% with AMARE (redroot pigweed) (PPI application, 900 g/ha). In addition, in the assay with AMARE (redroot pigweed), the “PPI activity (GR80) AMARE” value is listed as 100 g/ha. Moreover, the “Pre-emergence activity (GR80) SETVI” value in the assay on SETVI (green foxtail) amounted to 300 g/ha. In addition, the “Percent inhibition CHEAL” value in [5] (10 g/ha) stood at 30%; in assay [5] (30 g/ha), 60%; in [5] (100 g/ha) it was 60%; in assay [5] (300 g/ha), 100%; in assay [5] (900 g/ha), 100%. Moreover, in [5], the “PPI activity (GR80) CHEAL” value was 100 g/ha.
With `CCN(CC)C(=O)n1cnc(S(=O)(=O)C(F)(F)C(F)(F)SC)n1` [Example 14], the “Pre-emergence activity (GR80) AGSST” value in assay [1] stood at 30 g/ha. For the same molecule, the “Pre-emergence activity GR80, LAMPU” value in assay [2] amounted to 300 g/ha. Further, the “Pre-emergence activity GR80, SINAR” value with SINAR (wild mustard) was “[empty]”. In addition, the “Pre-emergence activity (GR80) SETVI” value with SETVI (green foxtail) is on record as 30 g/ha.
`CCN(CC)C(=O)n1cnc(S(=O)(=O)C(F)F)n1` [Example 15, 1-(N,N-diethylcarbamoyl)-3-(difluoromethylsulfonyl)-1,2,4-triazole]: the inhibition at 10 g/ha in the assay with XANST (cocklebur) (Xanthium strumarium, 10 g/ha, read-out: Percent inhibition XANST) was found to be 0%; in assay [3] (Panicum miliaceum, PPI application, 10 g/ha, read-out: Percent inhibition PANMI) it was 10%; with AMARE (redroot pigweed) (Amaranthus retroflexus, PPI application, 10 g/ha, read-out: Percent inhibition AMARE) it was 20%. Moreover, the inhibition at 30 g/ha with XANST (cocklebur) (Xanthium strumarium, 30 g/ha, read-out: Percent inhibition XANST) came to 0%; in assay [3] (Panicum miliaceum, PPI application, 30 g/ha, read-out: Percent inhibition PANMI), 70%; in the assay with AMARE (redroot pigweed) (Amaranthus retroflexus, PPI application, 30 g/ha, read-out: Percent inhibition AMARE), 100%. Moreover, the inhibition at 100 g/ha came out at 0% in the assay with XANST (cocklebur) (Xanthium strumarium, 100 g/ha, read-out: Percent inhibition XANST); 99% in assay [3] (Panicum miliaceum, PPI application, 100 g/ha, read-out: Percent inhibition PANMI); 80% in the assay with AMARE (redroot pigweed) (Amaranthus retroflexus, PPI application, 100 g/ha, read-out: Percent inhibition AMARE). Moreover, the inhibition at 300 g/ha worked out at 0% with XANST (cocklebur) (Xanthium strumarium, 300 g/ha, read-out: Percent inhibition XANST); 100% in assay [3] (Panicum miliaceum, PPI application, 300 g/ha, read-out: Percent inhibition PANMI); 100% in the assay on AMARE (redroot pigweed) (Amaranthus retroflexus, PPI application, 300 g/ha, read-out: Percent inhibition AMARE). The inhibition at 900 g/ha was found to be 100% in assay [3] (Panicum miliaceum, PPI application, 900 g/ha, read-out: Percent inhibition PANMI) and 100% in the assay on AMARE (redroot pigweed) (Amaranthus retroflexus, PPI application, 900 g/ha, read-out: Percent inhibition AMARE). For the same molecule, the “PPI activity GR80, PANMI” value in assay [3] is recorded as 30 g/ha. In addition, the “PPI activity GR80, AEGCY” value in assay [4] is “[empty]”. Also, the “PPI activity GR80, LOLMG” value in the assay on LOLMG (annual ryegrass) amounted to 100 g/ha. Also, in the assay with AMARE (redroot pigweed), the “PPI activity (GR80) AMARE” value was 100 g/ha. For the same molecule, the “PPI activity (GR80) CHEAL” value in assay [5] is recorded as 100 g/ha.
